Data: PubChem BioAssay AID330 (DTP/NCI, 2004)
Values joined by “and” are separate entries in the source; they are usually repeats but may differ in a detail not shown here. Equal entries are not always repeated. Toxic doses and inconclusive results are not listed. The calls were made as follows: active = survival T/C of 150% or more; inactive = T/C below 125% in these data.

Test system: P388 leukemia ip, CD2F1 mice, survival T/C
Experiment: NCI In Vivo Anticancer Drug Screen. Data for tumor model P388 Leukemia (intraperitoneal) in CD2F1 (CDF1) mice
Conditions: endpoint: median survival time, higher = longer survival
Outline: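 Mice carrying the transplanted tumor received test compound or vehicle. Survival was recorded in each group, and the value is the treated-group measurement divided by that of the vehicle-treated control group.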

[1] = dose: 50.0 mg/kg/injection, schedule: Q01DX009 (ip), vehicle: saline with Tween-80
[2] = dose: 100.0 mg/kg/injection, schedule: Q01DX009 (ip), vehicle: saline with Tween-80
[3] = dose: 200.0 mg/kg/injection, schedule: Q01DX009 (ip), vehicle: saline with Tween-80
[4] = dose: 75.0 mg/kg/injection, schedule: Q01DX009 (ip), vehicle: saline with Tween-80
[5] = dose: 400.0 mg/kg/injection, schedule: Q01DX009 (ip), vehicle: saline with Tween-80
[6] = dose: 50.0 mg/kg/injection, schedule: Q01DX005 (ip), vehicle: Klucel (hydroxypropylcellulose) (HPC)
[7] = dose: 100.0 mg/kg/injection, schedule: Q01DX005 (ip), vehicle: Klucel (hydroxypropylcellulose) (HPC)
[8] = dose: 200.0 mg/kg/injection, schedule: Q01DX005 (ip), vehicle: Klucel (hydroxypropylcellulose) (HPC)
[9] = dose: 100.0 mg/kg/injection, schedule: Q01DX001 (ip), vehicle: Klucel (hydroxypropylcellulose) (HPC)

Measured: T/C

COc1cc(CC2NCCc3cc(O)ccc32)cc(OC)c1OC (centres undefined)
inactive: dose: 50.0 mg/kg/injection, schedule: Q01DX009 (ip), vehicle: Klucel (hydroxypropylcellulose) (HPC) 103 % of control | dose: 100.0 mg/kg/injection, schedule: Q01DX009 (ip), vehicle: Klucel (hydroxypropylcellulose) (HPC) 99 % of control | dose: 200.0 mg/kg/injection, schedule: Q01DX009 (ip), vehicle: Klucel (hydroxypropylcellulose) (HPC) 102 % of control

CCN(CC)CCNc1ccc(COC(=O)NC)c2oc3ccc(OC(=O)NC)cc3c(=O)c12
inactive: dose: 3.13 mg/kg/injection, schedule: Q01DX005 (ip), vehicle: Klucel (hydroxypropylcellulose) (HPC) 123 % of control

O=C(/C=C/c1ccc(OCc2ccccc2)cc1)c1ccccc1[N+](=O)[O-]
inactive: [1] 104 % of control | [2] 101 % of control | [3] 92 % of control

CC1=Nc2ccccc2S/C1=C(/C)NN
inactive: dose: 100.0 mg/kg/injection, schedule: Q01DX001 (ip), vehicle: saline with Tween-80 104 % of control | dose: 200.0 mg/kg/injection, schedule: Q01DX001 (ip), vehicle: saline with Tween-80 104 % of control | dose: 400.0 mg/kg/injection, schedule: Q01DX001 (ip), vehicle: saline with Tween-80 95 % of control

N=C(N)Sc1cc(O)ccc1O
inactive: [4] 118 % of control | dose: 150.0 mg/kg/injection, schedule: Q01DX009 (ip), vehicle: saline with Tween-80 113 % of control

COC(=O)C(=O)c1ccccc1
inactive: [1] 107 % of control | [2] 101 % of control | [3] 99 % of control | [5] 99 % of control

O=Cc1ccccc1C=O
inactive: dose: 100.0 mg/kg/injection, schedule: Q04DX002 (ip), vehicle: saline with Tween-80 98 % of control | dose: 200.0 mg/kg/injection, schedule: Q04DX002 (ip), vehicle: saline with Tween-80 107 % of control | dose: 400.0 mg/kg/injection, schedule: Q04DX002 (ip), vehicle: saline with Tween-80 102 % of control

CCCCCC1NC(C(=O)O)CS1 (centres undefined)
inactive: dose: 50.0 mg/kg/injection, schedule: Q01DX009 (ip), vehicle: suspension in saline 88 % of control | dose: 100.0 mg/kg/injection, schedule: Q01DX009 (ip), vehicle: suspension in saline 94 % of control | dose: 200.0 mg/kg/injection, schedule: Q01DX009 (ip), vehicle: suspension in saline 102 % of control

Nc1nccc(NCCCCCCNc2ccnc(N)n2)n1
inactive: dose: 12.5 mg/kg/injection, schedule: Q04DX002 (ip), vehicle: saline 104 % of control and 108 % of control | dose: 25.0 mg/kg/injection, schedule: Q04DX002 (ip), vehicle: saline 106 % of control and 114 % of control | dose: 50.0 mg/kg/injection, schedule: Q04DX002 (ip), vehicle: saline 105 % of control and 114 % of control | dose: 100.0 mg/kg/injection, schedule: Q04DX002 (ip), vehicle: saline 114 % of control and 119 % of control | dose: 200.0 mg/kg/injection, schedule: Q04DX002 (ip), vehicle: saline 116 % of control and 123 % of control

CCC(O)Cn1cnc2c(N)ncnc21 (centres undefined)
inactive: [6] 99 % of control | [7] 99 % of control | [8] 100 % of control

CCOC(=O)Nc1cc(=O)c([N+](=O)[O-])c(N)[nH]1
inactive: dose: 60.0 mg/kg/injection, schedule: Q01DX005 (ip), vehicle: saline + Tween-80 + alcohol 99 % of control | dose: 120.0 mg/kg/injection, schedule: Q01DX005 (ip), vehicle: saline + Tween-80 + alcohol 101 % of control | dose: 240.0 mg/kg/injection, schedule: Q01DX005 (ip), vehicle: saline + Tween-80 + alcohol 100 % of control

O=C(CC1=NC2NN(c3ccccc3)C(=O)C2=C1CC(=O)c1cccc([N+](=O)[O-])c1)c1cccc([N+](=O)[O-])c1 (centres undefined)
inactive: dose: 60.0 mg/kg/injection, schedule: Q01DX005 (ip), vehicle: saline with Tween-80 95 % of control | dose: 120.0 mg/kg/injection, schedule: Q01DX005 (ip), vehicle: saline with Tween-80 99 % of control | dose: 240.0 mg/kg/injection, schedule: Q01DX005 (ip), vehicle: saline with Tween-80 86 % of control

Oc1ccccc1C=NCCCN=Cc1ccccc1O
inactive: dose: 18.75 mg/kg/injection, schedule: Q01DX009 (ip), vehicle: saline with Tween-80 103 % of control | dose: 37.5 mg/kg/injection, schedule: Q01DX009 (ip), vehicle: saline with Tween-80 110 % of control | [1] 109 % of control | [4] 111 % of control | [3] 121 % of control | [5] 119 % of control

Cc1ncc([N+](=O)[O-])n1CCSC(Cl)(Cl)Cl
inactive: dose: 12.5 mg/kg/injection, schedule: Q04DX003 (ip), vehicle: saline 99 % of control and 112 % of control | dose: 25.0 mg/kg/injection, schedule: Q04DX003 (ip), vehicle: saline 102 % of control and 111 % of control | dose: 50.0 mg/kg/injection, schedule: Q04DX003 (ip), vehicle: saline 112 % of control and 118 % of control | dose: 100.0 mg/kg/injection, schedule: Q04DX003 (ip), vehicle: saline 112 % of control and 89 % of control

C=CCOC1C=C(C)C(=O)O1 (centres undefined)
inactive: dose: 41.5 mg/kg/injection, schedule: Q01DX005 (ip), vehicle: saline with Tween-80 100 % of control | dose: 83.0 mg/kg/injection, schedule: Q01DX005 (ip), vehicle: saline with Tween-80 103 % of control | dose: 166.0 mg/kg/injection, schedule: Q01DX005 (ip), vehicle: saline with Tween-80 109 % of control

CCOC(=O)CN=NNc1ccccc1C(=O)CC
inactive: [9] 98 % of control | dose: 200.0 mg/kg/injection, schedule: Q01DX001 (ip), vehicle: Klucel (hydroxypropylcellulose) (HPC) 100 % of control | dose: 400.0 mg/kg/injection, schedule: Q01DX001 (ip), vehicle: Klucel (hydroxypropylcellulose) (HPC) 100 % of control

O=[N+]([O-])c1cccc(N/N=C\c2c(Cl)[nH]c3ccccc23)c1
inactive: dose: 12.5 mg/kg/injection, schedule: Q01DX001 (ip), vehicle: Klucel (hydroxypropylcellulose) (HPC) 102 % of control | dose: 25.0 mg/kg/injection, schedule: Q01DX001 (ip), vehicle: Klucel (hydroxypropylcellulose) (HPC) 93 % of control | dose: 50.0 mg/kg/injection, schedule: Q01DX001 (ip), vehicle: Klucel (hydroxypropylcellulose) (HPC) 89 % of control | [9] 86 % of control

O=c1[nH]c2c(ccc3c[n+]([O-])ccc32)c2c1CCC2
inactive: [1] 88 % of control | [2] 100 % of control | [3] 108 % of control

CCCCCCCCCCCC(=O)NCC(=O)NC1C(C)OC(Nc2ncnc3nc[nH]c23)C(O)C1O (centres undefined)
inactive: dose: 0.25 mg/kg/injection, schedule: Q01DX009 (ip), vehicle: other 113 % of control | dose: 0.5 mg/kg/injection, schedule: Q01DX009 (ip), vehicle: other 109 % of control

C/C(=N/NC(=O)c1ccccc1)c1ccc(Cl)cc1Cl
inactive: dose: 12.5 mg/kg/injection, schedule: Q01DX009 (ip), vehicle: Klucel (hydroxypropylcellulose) (HPC) 90 % of control

Clc1ccc2c(NCCCCCCNc3ccnc4cc(Cl)ccc34)ccnc2c1
inactive: dose: 6.25 mg/kg/injection, schedule: Q01DX005 (ip), vehicle: saline with Tween-80 97 % of control | dose: 12.5 mg/kg/injection, schedule: Q01DX005 (ip), vehicle: saline with Tween-80 90 % of control | dose: 25.0 mg/kg/injection, schedule: Q01DX005 (ip), vehicle: saline with Tween-80 99 % of control | dose: 50.0 mg/kg/injection, schedule: Q01DX005 (ip), vehicle: saline with Tween-80 100 % of control | dose: 100.0 mg/kg/injection, schedule: Q01DX005 (ip), vehicle: saline with Tween-80 109 % of control

CCOc1ccc2c(=O)c(C(=O)O)c[nH]c2c1
inactive: dose: 50.0 mg/kg/injection, schedule: Q01DX009 (ip), vehicle: saline 107 % of control | dose: 100.0 mg/kg/injection, schedule: Q01DX009 (ip), vehicle: saline 107 % of control | dose: 200.0 mg/kg/injection, schedule: Q01DX009 (ip), vehicle: saline 108 % of control

Cc1ccc(S(=O)(=O)/N=C2\CCN(S(=O)(=O)c3ccc(C)cc3)N2S(=O)(=O)c2ccc(C)cc2)cc1
inactive: [6] 97 % of control | [7] 94 % of control | [8] 97 % of control

CC(=O)c1c(O)c(C)c(O)c2c1OC1=Cc3c(c(C)nn3-c3ccccc3)C(=O)C12C (centres undefined)
inactive: dose: 6.25 mg/kg/injection, schedule: Q01DX009 (ip), vehicle: gum acacia 104 % of control and 108 % of control | dose: 12.5 mg/kg/injection, schedule: Q01DX009 (ip), vehicle: gum acacia 103 % of control and 105 % of control | dose: 25.0 mg/kg/injection, schedule: Q01DX009 (ip), vehicle: gum acacia 101 % of control and 105 % of control | dose: 50.0 mg/kg/injection, schedule: Q01DX009 (ip), vehicle: gum acacia 98 % of control and 101 % of control | dose: 100.0 mg/kg/injection, schedule: Q01DX009 (ip), vehicle: gum acacia 99 % of control and 93 % of control | dose: 200.0 mg/kg/injection, schedule: Q01DX009 (ip), vehicle: gum acacia 86 % of control and 90 % of control
